# Assay results from patent publication US20220031625A1, “OPHTHALMIC COMPOSITIONS FOR DELIVERING MEIBUM-LIKE MATERIALS” (Altaire Pharmaceuticals, Inc., priority 2020, published 2022).
# Tested on: normal human keratinocytes/stratified squamous epithelium (EPIOCULAR model)
# Assay: Ocular irritation test - MTT assay on EPIOCULAR model
# Type: cell-based
# Protocol: Another Ocular Irritation Study was done by exposing a microemulsion containing polyoxyl 35 castor oil in accordance with an embodiment of the present disclosure onto normal human keratinocytes/stratified squamous epithelium which is similar to that found in the cornea epithelium of the human eye (EPIOCULAR model), and then checking tissue viability with MTT assay for cytoxicity after incubation in comparison with a water control (Cyprotex). The study design and results are summarized below in Table 7.
smiles,measurement,setting,value
COC(C)=O [Methyl Acetate],Irritation Response (Irritant if ≤60%),EPIOCULAR model,Positive
same,Mean Tissue Viability,in comparison with a water control,31.1%
